Assay results reported in BindingDB's records for doi:10.1021/jm0301787 (Roche Palo Alto, 2003).

Molecular target: Mitogen-activated protein kinase 14 (Homo sapiens, UniProt Q16539)
Test: In Vitro Kinase Assay
Conditions: pH 7.4; 30 °C
Procedure: Inhibition of human recombinant active p38alpha MAP kinase was tested by measuring the incorporation of 33P from gamma-[33P] ATP into myelin basic protein (MBP). The assay was performed in a 96-well microtiter plate. The incorporated radioactivity was measured in a Packard Topcount microplate scintillation counter. The 50% inhibitory value was calculated by fitting the data to the equation: fractional activity = 1/[I]/IC50 + 1.

Chain of Mitogen-activated protein kinase 14 (Q16539 whole entry): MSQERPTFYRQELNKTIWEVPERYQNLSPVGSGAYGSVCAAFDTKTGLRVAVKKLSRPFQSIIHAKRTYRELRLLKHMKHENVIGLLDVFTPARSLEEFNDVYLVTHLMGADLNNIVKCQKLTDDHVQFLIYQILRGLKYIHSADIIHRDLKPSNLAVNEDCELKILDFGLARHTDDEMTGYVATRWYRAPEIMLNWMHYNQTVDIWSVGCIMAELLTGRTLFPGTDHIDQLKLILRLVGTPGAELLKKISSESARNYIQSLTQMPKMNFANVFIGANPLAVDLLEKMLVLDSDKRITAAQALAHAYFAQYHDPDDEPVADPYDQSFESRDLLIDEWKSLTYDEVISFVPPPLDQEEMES

CC(CO)Nc1cc(-c2[nH]c3cccnc3c2-c2ccc(F)cc2)ccn1 (stereo unspecified) [2-({4-[3-(4-fluorophenyl)-1H-pyrrolo[3,2-b]pyridin-2-yl]pyridin-2-yl}amino)propan-1-ol]
IC50: 3 nM
